Experimental data taken from the supplement of paper PMC5908809.

Columns and labels:
[1] = test system: normal NK cells expanded with K562-aAPC; experiment: percent inhibition of viability; higher = more inhibition; conditions: 72 h, IL-2 2.5 ng/mL
Description: (§1)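 Drug sensitivity and resistance testing on K562-aAPC-expanded normal NK cells: 5 concentrations (10-fold steps over a 10,000-fold range), 72 h at 37 °C, viability by CellTiter-Glo normalised to DMSO and benzethonium chloride controls; DSS from the fitted curve.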

DERL-7 (IL-2 2.5 ng/mL) [2] = experiment: as above; conditions: 72 h
IMC-1 (IL-2 20 ng/mL) [3] = experiment: as above; conditions: 72 h
KAI3 (IL-2 2.5 ng/mL) [4] = experiment: as above; conditions: 72 h
KHYG-1 (IL-2 2.5 ng/mL) [5] = experiment: as above; conditions: 72 h
NK-92 (IL-2 2.5 ng/mL) [6] = experiment: as above; conditions: 72 h
NK-YS (IL-2 2.5 ng/mL) [7] = experiment: as above; conditions: 72 h
NKL (IL-2 2.5 ng/mL) [8] = experiment: as above; conditions: 72 h
SNK-6 (IL-2 2.5 ng/mL) [9] = experiment: as above; conditions: 72 h
YT (IL-2 2.5 ng/mL) [10] = experiment: as above; conditions: 72 h
[11] = test system: normal primary NK cells, pool 1 (3 donors) (IL-2 2.5 ng/mL); experiment: as above; conditions: 72 h
[12] = test system: normal primary NK cells, pool 1 (3 donors), resting (IL-2 0 ng/mL); experiment: as above; conditions: 72 h
[13] = test system: normal primary NK cells, pool 2 (3 donors) (IL-2 2.5 ng/mL); experiment: as above; conditions: 72 h
[14] = test system: normal primary NK cells, pool 3 (3 donors) (IL-2 2.5 ng/mL); experiment: as above; conditions: 72 h
[15] = test system: normal NK cells expanded with K562-aAPC; experiment: drug sensitivity score (DSS) (DSS units); higher = more sensitive; extreme values may be limits of the assay; conditions: 72 h; IL-2 2.5 ng/mL
Description: as §1

DERL-7 (IL-2 2.5 ng/mL) [16] = experiment: as above; conditions: 72 h
IMC-1 (IL-2 20 ng/mL) [17] = experiment: as above; conditions: 72 h
KAI3 (IL-2 2.5 ng/mL) [18] = experiment: as above; conditions: 72 h
KHYG-1 (IL-2 2.5 ng/mL) [19] = experiment: as above; conditions: 72 h
NK-92 (IL-2 2.5 ng/mL) [20] = experiment: as above; conditions: 72 h
NK-YS (IL-2 2.5 ng/mL) [21] = experiment: as above; conditions: 72 h
NKL (IL-2 2.5 ng/mL) [22] = experiment: as above; conditions: 72 h
SNK-6 (IL-2 2.5 ng/mL) [23] = experiment: as above; conditions: 72 h
YT (IL-2 2.5 ng/mL) [24] = experiment: as above; conditions: 72 h
[25] = test system: normal primary NK cells, pool 1 (3 donors) (IL-2 2.5 ng/mL); experiment: as above; conditions: 72 h
[26] = test system: normal primary NK cells, pool 1 (3 donors), resting (IL-2 0 ng/mL); experiment: as above; conditions: 72 h
[27] = test system: normal primary NK cells, pool 2 (3 donors) (IL-2 2.5 ng/mL); experiment: as above; conditions: 72 h
[28] = test system: normal primary NK cells, pool 3 (3 donors) (IL-2 2.5 ng/mL); experiment: as above; conditions: 72 h

CN(c1ncccc1CNc1nc(Nc2ccc3c(c2)CC(=O)N3)ncc1C(F)(F)F)S(C)(=O)=O (max concentration tested 10000 nM)
percent inhibition of viability [%]
Conditions	1 nM	10 nM	100 nM	1000 nM	10000 nM
DERL-7 (IL-2 2.5 ng/mL) [2]	-3.04	-1.94	-4.92	14.9	99.9
IMC-1 (IL-2 20 ng/mL) [3]	-1.02	-1.57	1.51	2.71	97.8
KAI3 (IL-2 2.5 ng/mL) [4]	-4.38	-3.17	-1.99	15.1	94.9
KHYG-1 (IL-2 2.5 ng/mL) [5]	1.46	-1.82	-1.38	42.5	95.7
NK-92 (IL-2 2.5 ng/mL) [6]	-15.3	-22	-13	1.77	94.6
NK-YS (IL-2 2.5 ng/mL) [7]	1.14	-3.29	-8.54	31.5	92.8
NKL (IL-2 2.5 ng/mL) [8]	-0.23	-12.4	-5.82	24.1	95
SNK-6 (IL-2 2.5 ng/mL) [9]	8.22	-2.6	-15.8	2.42	59.8
YT (IL-2 2.5 ng/mL) [10]	2.65	-2.39	-3.31	24.6	95.2
[1]	-0.87	-5.24	-0.38	6.43	99.8
[11]	-2.69	-13.7	-10.8	10	97.2
[12]	-20.5	-23.2	-40	-70.9	88.9
[13]	-12.4	-9.66	-11.1	-4.87	94.8
[14]	-12.7	-6.19	-9.86	-12.6	97.7

Conditions	drug sensitivity score
DERL-7 (IL-2 2.5 ng/mL) [16]	8
IMC-1 (IL-2 20 ng/mL) [17]	5.8
KAI3 (IL-2 2.5 ng/mL) [18]	7.77
KHYG-1 (IL-2 2.5 ng/mL) [19]	10.8
NK-92 (IL-2 2.5 ng/mL) [20]	5.49
NK-YS (IL-2 2.5 ng/mL) [21]	9.57
NKL (IL-2 2.5 ng/mL) [22]	8.95
SNK-6 (IL-2 2.5 ng/mL) [23]	3.56
YT (IL-2 2.5 ng/mL) [24]	9.01
[15]	6.5
[25]	7.02
[26]	3.17
[27]	4.9
[28]	4.64

O=C(Nc1ccc2[nH]nc(-c3ccncc3)c2c1)[C@@H]1CCN(CC(=O)N2CCN(c3ccc(-c4ncccn4)cc3)CC2)C1 (max concentration tested 10000 nM)
percent inhibition of viability [%]
Conditions	1 nM	10 nM	100 nM	1000 nM	10000 nM
DERL-7 (IL-2 2.5 ng/mL) [2]	-1.39	5.53	18	42.9	66.6
IMC-1 (IL-2 20 ng/mL) [3]	-5.11	-10.7	-8.77	-10.1	-4.64
KAI3 (IL-2 2.5 ng/mL) [4]	-4.48	5.51	14.6	21	46.9
KHYG-1 (IL-2 2.5 ng/mL) [5]	-2.48	-2.2	5.59	45.6	78.9
NK-92 (IL-2 2.5 ng/mL) [6]	-6.06	-9.07	-16.6	-32.5	12.5
NK-YS (IL-2 2.5 ng/mL) [7]	-4.51	-0.3	-0.1	9.9	40.6
NKL (IL-2 2.5 ng/mL) [8]	-19.4	-14.6	3.59	55.7	71.8
SNK-6 (IL-2 2.5 ng/mL) [9]	-4.99	4.31	5.1	-34.4	15.8
YT (IL-2 2.5 ng/mL) [10]	-0.05	-0.51	-3.3	9.81	22.2
[1]	2.7	-4.22	-5.95	2.93	20.3
[11]	-5.21	-6.91	-5.12	11.2	47.8
[12]	4.46	-7.38	-1.31	12.8	58.7
[13]	-6.14	-5.45	0.32	5.74	15.6
[14]	-13.2	-18.2	-22.8	-10.8	20

Conditions	drug sensitivity score
DERL-7 (IL-2 2.5 ng/mL) [16]	10.3
IMC-1 (IL-2 20 ng/mL) [17]	0
KAI3 (IL-2 2.5 ng/mL) [18]	5.52
KHYG-1 (IL-2 2.5 ng/mL) [19]	9.89
NK-92 (IL-2 2.5 ng/mL) [20]	0.01
NK-YS (IL-2 2.5 ng/mL) [21]	3.58
NKL (IL-2 2.5 ng/mL) [22]	10.9
SNK-6 (IL-2 2.5 ng/mL) [23]	0.08
YT (IL-2 2.5 ng/mL) [24]	1.87
[15]	1.01
[25]	4.28
[26]	5.24
[27]	0.76
[28]	0.32

Nc1ncnc2c1nc(Cl)n2[C@@H]1O[C@H](CO)[C@@H](O)[C@H]1O [8-chloro-adenosine] (max concentration tested 50000 nM)
percent inhibition of viability [%]
Conditions	5 nM	50 nM	500 nM	5000 nM	50000 nM
DERL-7 (IL-2 2.5 ng/mL) [2]	-0.76	-2.87	38.2	96.9	101
IMC-1 (IL-2 20 ng/mL) [3]	-4.61	-4.66	-2.73	-11.7	66.7
KAI3 (IL-2 2.5 ng/mL) [4]	-13.1	-12.4	38.3	86.7	92.9
KHYG-1 (IL-2 2.5 ng/mL) [5]	-6.84	-4.5	1.43	75.4	94
NK-92 (IL-2 2.5 ng/mL) [6]	-20.2	-17.7	8.7	44.5	64
NK-YS (IL-2 2.5 ng/mL) [7]	-8.76	-5.07	22.4	73.6	92.2
NKL (IL-2 2.5 ng/mL) [8]	-21.8	-24.6	-10.7	40.7	75.6
SNK-6 (IL-2 2.5 ng/mL) [9]	21.5	20.6	46.5	92.8	96.9
YT (IL-2 2.5 ng/mL) [10]	-2.82	-1.05	1.56	66.9	72.2
[1]	-0.51	-6.13	2.57	35.4	73
[11]	-2.27	-6.47	-3.95	30.1	77.2
[12]	-17.2	-29.2	-19.8	36.1	78.2
[13]	-8.69	0.94	1.41	28	71.1
[14]	-18.1	-3.17	-4.4	17.3	57.7

Conditions	drug sensitivity score
DERL-7 (IL-2 2.5 ng/mL) [16]	22.6
IMC-1 (IL-2 20 ng/mL) [17]	2.97
KAI3 (IL-2 2.5 ng/mL) [18]	21.9
KHYG-1 (IL-2 2.5 ng/mL) [19]	14
NK-92 (IL-2 2.5 ng/mL) [20]	9.34
NK-YS (IL-2 2.5 ng/mL) [21]	16.3
NKL (IL-2 2.5 ng/mL) [22]	9.19
SNK-6 (IL-2 2.5 ng/mL) [23]	23.8
YT (IL-2 2.5 ng/mL) [24]	12.5
[15]	8.27
[25]	8.37
[26]	8.97
[27]	7.63
[28]	5.7
